The target of assay [1] is His-tagged KRAS G12D protein (Homo sapiens, UniProt P01116, G12D). The assay can be described thus: KRAS G12D TR-FRET Assay.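 Note: europium anti-His antibody paired with streptavidin-d2 as FRET partners, initial 30 min incubation, then peptide 1 h and detection reagents 1 h, all at room temperature.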 The class given is binding. The conditions noted are these: biotinylated KRPep-2d substrate, 10 μM GDP.
For assay [2], the target named is GDP-bound KRAS protein (aa 1-169), containing both G12D and C118A amino acid substitutions (Homo sapiens, UniProt P01116, C118A/G12D). As to the kind of experiment: KRAS G12D Coupled Nucleotide Exchange Assay.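 Note: IC50 obtained by fitting the AlphaScreen signal with a four-parameter logistic curve.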 It counts as biochemical. The conditions noted are these: 2 h compound pre-incubation; SOS-mediated nucleotide exchange, cRAF AlphaScreen readout.

The results in this text go back to patent publication US20250059179A1, “Heterocyclic Compounds and Methods of Use” (AMGEN INC., priority 2021, published 2025).

SMILES strings stand for the structures. pIC50: −log10 of the molar value.

Chain of GDP-bound KRAS protein (aa 1-169), containing both G12D and C118A amino acid substitutions (P01116 1-169 isoform P01116-2 G12D/C118A): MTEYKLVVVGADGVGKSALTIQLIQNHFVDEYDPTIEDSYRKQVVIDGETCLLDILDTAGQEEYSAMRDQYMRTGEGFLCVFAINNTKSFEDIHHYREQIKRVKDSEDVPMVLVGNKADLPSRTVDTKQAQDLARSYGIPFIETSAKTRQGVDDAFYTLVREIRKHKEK
Chain of His-tagged KRAS G12D protein (P01116 1-188 isoform P01116-2 G12D): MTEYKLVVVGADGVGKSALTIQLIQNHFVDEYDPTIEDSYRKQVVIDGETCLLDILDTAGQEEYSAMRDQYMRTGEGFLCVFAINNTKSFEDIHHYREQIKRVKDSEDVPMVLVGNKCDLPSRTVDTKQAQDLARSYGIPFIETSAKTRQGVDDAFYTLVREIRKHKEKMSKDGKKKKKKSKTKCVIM

Molecule `Nc1nc2c(-c3c(Cl)cc4c(N5CCNCC5)nc(OC[C@@H]5CCCN5CC(F)F)nc4c3F)cccc2s1` [Example 66, 4-(6-chloro-2-(((S)-1-(2,2-difluoroethyl)pyrrolidin-2-yl)methoxy)-8-fluoro-4-(piperazin-1-yl)quinazolin-7-yl)benzo[d] thiazol-2-amine] gave a pIC50 in assay [1] of 5.79. The “Avg 2 h Coupled Exchange IC50” value in assay [2] was 549 nM.
In the same order, the values of `CN(C)C1CN(c2nc(N3CCNCC3)c3cc(Cl)c(-c4cccc5sc(N)nc45)c(F)c3n2)C1` [Example 67, 4-(6-chloro-2-(3-(dimethylamino)azetidin-1-yl)-8-fluoro-4-(piperazin-1-yl)quinazolin-7-yl)benzo[d] thiazol-2-amine] are 5.79 and 670 nM.
In the same order, the values of `Nc1nc2c(-c3c(Cl)cc4c(N5CCNCC5)nc(OC[C@@H]5CCC(=O)N5)nc4c3F)cccc2s1` [Example 68, (5S)-5-(((7-(2-aminobenzo[d]thiazol-4-yl)-6-chloro-8-fluoro-4-(piperazin-1-yl)quinazolin-2-yl)oxy)methyl) pyrrolidin-2-one] are 6.08 and 718 nM.
In the same order, the values of `C[C@H](CN(C)C)Oc1nc(N2CCNCC2)c2cc(Cl)c(-c3cccc4sc(N)nc34)c(F)c2n1` [Example 69, 4-(6-chloro-2-(((R)-1-(dimethylamino)propan-2-yl)oxy)-8-fluoro-4-(piperazin-1-yl)quinazolin-7-yl)benzo[d] thiazol-2-amine] are 5.11 and 1890 nM.
`CN1CCC[C@H]1CNc1nc(N2CCNCC2)c2cc(Cl)c(-c3cccc4sc(N)nc34)c(F)c2n1` [Example 70, 4-(6-chloro-8-fluoro-2-((((S)-1-methyl-pyrrolidin-2-yl)methyl)amino)-4-(piperazin-1-yl)quinazolin-7-yl)benzo[d] thiazol-2-amine] had a pIC50 in assay [1] of 4.97. Moreover, the “Avg 2 h Coupled Exchange IC50” value in assay [2] worked out at 2140 nM.
In the same order, the values of `CC(=O)N1CCC[C@H]1COc1nc(N2CCNCC2)c2cc(Cl)c(-c3cccc4sc(N)nc34)c(F)c2n1` [Example 71, 1-((2S)-2-(((7-(2-aminobenzo[d]thiazol-4-yl)-6-chloro-8-fluoro-4-(piperazin-1-yl)quinazolin-2-yl)oxy)methyl)pyrrolidin-1-yl)ethan-1-one] are 5.40 and 2530 nM.
In the case of `Nc1nc2c(-c3c(Cl)cc4c(N5CCNCC5)nc(OCC56CCC(CC5)N6)nc4c3F)cccc2s1` [Example 75, 4-(2-(((1s,4s)-7-azabicyclo[2.2.1]heptan-1-yl)methoxy)-6-chloro-8-fluoro-4-(piperazin-1-yl)quinazolin-7-yl)benzo[d] thiazol-2-amine], the pIC50 in assay [1] was 5.73. In assay [2], the “Avg 2 h Coupled Exchange IC50” value amounted to 797 nM.
For `CCN1CCC(Oc2nc(N3CCNCC3)c3cc(Cl)c(-c4cccc5sc(N)nc45)c(F)c3n2)CC1` [Example 128, 4-(6-chloro-2-((1-ethylpiperidin-4-yl)oxy)-8-fluoro-4-(piperazin-1-yl)quinazolin-7-yl)benzo[d]thiazol-2-amine], in that order: 5.83 and 411 nM.
`Cc1cc(-c2c(Cl)cc3c(N4CCNCC4)nc(OC[C@@H]4CCCN4C)nc3c2F)c2nc(N)sc2c1` [Example 129, 4-(6-chloro-8-fluoro-2-(((S)-1-methylpyrrolidin-2-yl)methoxy)-4-(piperazin-1-yl)quinazolin-7-yl)-6-methylbenzo[d]thiazol-2-amine] gave a pIC50 in assay [1] of 5.28. The “Avg 2 h Coupled Exchange IC50” value in assay [2] worked out at 1090 nM.
In the same order, the values of `CN1CCC[C@H]1COc1nc(N2CCNCC2)c2cc(Cl)c(-c3ccc(C(F)(F)F)c4sc(N)nc34)c(F)c2n1` [Example 131, 4-(6-chloro-8-fluoro-2-(((S)-1-methylpyrrolidin-2-yl)methoxy)-4-(piperazin-1-yl)quinazolin-7-yl)-7-(trifluoromethyl)benzo [d]thiazol-2-amine] are 5.85 and 735 nM.
In the same order, the values of `CN1CCC[C@H]1COc1nc(N2CCNCC2)c2cc(F)c(-c3cccc4sc(N)nc34)c(F)c2n1` [Example 134, 4-(6,8-difluoro-2-(((S)-1-methylpyrrolidin-2-yl)methoxy)-4-(piperazin-1-yl)quinazolin-7-yl)benzo[d]thiazol-2-amine] are 5.62 and 391 nM.
For `Cc1c(-c2ccc(F)c3sc(N)nc23)ccc2c(N3C[C@H]4CC[C@@H](C3)N4)nc(OC[C@@]34CCCN3C[C@H](F)C4)nc12` [Example 139, 4-(4-((1R,5S)-3,8-diazabicyclo[3.2.1]octan-3-yl)-2-(((2R,7aS)-2-fluorotetrahydro-1H-pyrrolizin-7a(5H)-yl)methoxy)-8-methylquinazolin-7-yl)-7-fluorobenzo[d]thiazol-2-amine], in that order: 7.96 and 3 nM.
`Nc1nc2c(-c3ccc4c(N5C[C@H]6CC[C@@H](C5)N6)nc(OC[C@@]56CCCN5C[C@H](F)C6)nc4c3F)ccc(F)c2s1` [Example 140, 4-(4-((1R,5S)-3,8-diazabicyclo[3.2.1]octan-3-yl)-8-fluoro-2-(((2R,7aS)-2-fluorotetrahydro-1H-pyrrolizin-7a(5H)-yl)methoxy)quinazolin-7-yl)-7-fluorobenzo[d]thiazol-2-amine] showed a pIC50 in assay [1] of 7.92. Further, in assay [2], the “Avg 2 h Coupled Exchange IC50” value came to 3 nM.
With `Nc1nc2c(-c3c(F)cc4c(N5C[C@H]6CC[C@@H](C5)N6)nc(OC[C@@]56CCCN5C[C@H](F)C6)nc4c3F)ccc(F)c2s1` [Example 141, 4-(4-((1R,5S)-3,8-diazabicyclo [3.2.1]octan-3-yl)-6,8-difluoro-2-(((2R,7aS)-2-fluorotetrahydro-1H-pyrrolizin-7a(5H)-yl)methoxy)quinazolin-7-yl)-7-fluorobenzo[d]thiazol-2-amine], the pIC50 in assay [1] is 8.70. Moreover, in assay [2], the “Avg 2 h Coupled Exchange IC50” value is 2 nM.
In the same order, the values of `Nc1nc2c(-c3c(F)cc4c(N5[C@@H]6CC[C@H]5CNC6)nc(OC[C@@]56CCCN5C[C@H](F)C6)nc4c3F)ccc(F)c2s1` [Example 142, 4-(4-((1R,5S)-3,8-diazabicyclo[3.2.1]octan-8-yl)-6,8-difluoro-2-(((2R,7aS)-2-fluorotetrahydro-1H-pyrrolizin-7a(5H)-yl)methoxy)quinazolin-7-yl)-7-fluorobenzo[d]thiazol-2-amine] are 8.40 and 7 nM.
`Nc1nc2c(-c3c(F)cc4c(N5C[C@@H]6CC[C@H]5CN6)nc(OC[C@@]56CCCN5C[C@H](F)C6)nc4c3F)ccc(F)c2s1` [Example 143, 4-(4-((1S,4S)-2,5-diazabicyclo[2.2.2]octan-2-yl)-6,8-difluoro-2-(((2R,7aS)-2-fluorotetrahydro-1H-pyrrolizin-7a(5H)-yl)methoxy)quinazolin-7-yl)-7-fluorobenzo[d]thiazol-2-amine]: the pIC50 in assay [1] was 8.00. Further, in assay [2], the “Avg 2 h Coupled Exchange IC50” value came out at 8 nM.
`CC1=C(c2nc(OC[C@@H]3CCCN3C)nc3c(F)c(-c4cccc5sc(N)nc45)c(Cl)cc23)CCNC1` [Example 147, 4-(6-chloro-8-fluoro-4-(5-methyl-1,2,3,6-tetrahydropyridin-4-yl)-2-(((S)-1-methylpyrrolidin-2-yl)methoxy)quinazolin-7-yl)benzo[d]thiazol-2-amine] had a pIC50 in assay [1] of 4.95. The “Avg 2 h Coupled Exchange IC50” value in assay [2] was 3550 nM.
In the same order, the values of `Cc1cc2c(N3CCNCC3)nc(OC[C@@H]3CCCN3C)nc2c(F)c1-c1cccc2sc(N)nc12` [Example 155, 4-(8-Fluoro-6-methyl-2-(((S)-1-methylpyrrolidin-2-yl)methoxy)-4-(piperazin-1-yl)quinazolin-7-yl)benzo[d]thiazol-2-amine] are 6.73 and 40 nM.
In the same order, the values of `CN1CCC[C@H]1COc1nc(N2CCNCC2)c2cc(C#N)c(-c3cccc4sc(N)nc34)c(F)c2n1` [Example 156, 7-(2-Aminobenzo[d]thiazol-4-yl)-8-fluoro-2-(((S)-1-methylpyrrolidin-2-yl)methoxy)-4-(piperazin-1-yl)quinazoline-6-carbonitrile] are 6.44 and 189 nM.
In the same order, the values of `CN1CCC[C@H]1COc1nc2c(F)c(-c3ccc(F)c4sc(N)nc34)c(Cl)cc2c(N2CCNCC2)c1C#N` [Example 157, 7-(2-Amino-7-fluorobenzo[d]thiazol-4-yl)-6-chloro-8-fluoro-2-(((S)-1-methylpyrrolidin-2-yl)methoxy)-4-(piperazin-1-yl)quinoline-3-carbonitrile] are 7.14 and 23 nM.
On to `CN1C[C@H](F)C[C@H]1COc1nc2c(F)c(-c3ccc(F)c4sc(N)nc34)c(Cl)cc2c(N2[C@@H]3CC[C@H]2CNC3)c1C#N` [Example 160, 7-(2-amino-7-fluorobenzo[d]thiazol-4-yl)-4-((1R,5S)-3,8-diazabicyclo[3.2.1]octan-8-yl)-6-chloro-8-fluoro-2-(((2S,4R)-4-fluoro-1-methylpyrrolidin-2-yl)methoxy)quinoline-3-carbonitrile], for which, in assay [1], the pIC50 is 6.05. Moreover, the “Avg 2 h Coupled Exchange IC50” value in assay [2] was found to be 578 nM.
